Data reported in US20030143559A1, “Novel estrogen receptor ligand binding domain variants and novel ligands and pharmaceutical compositions” (priority 2001, published 2003).
Numbering of substitutions follows the chain as printed. “And” between values parts separate entries of the source, which are not always exact repeats. Equal values may be shown once.

Tests used:
ER-LBD 421V/428A = target: T1, ER-LBD 421V/428A (Homo sapiens, UniProt P03372, L428A/M421V); assay: ER-LBD 421V/428A transactivation, cotransfection luciferase reporter assay in HeLa cells; type: cell-based; details: p6x2C7Luc reporter, 0.003 to 1000 nM, mean of two or more experiments, read-out: EC50 ± STDEV
T1 construct: expressed in transfected cells; host or cells: HeLa
T1 sequence (P03372 311-547 M421V/L428A): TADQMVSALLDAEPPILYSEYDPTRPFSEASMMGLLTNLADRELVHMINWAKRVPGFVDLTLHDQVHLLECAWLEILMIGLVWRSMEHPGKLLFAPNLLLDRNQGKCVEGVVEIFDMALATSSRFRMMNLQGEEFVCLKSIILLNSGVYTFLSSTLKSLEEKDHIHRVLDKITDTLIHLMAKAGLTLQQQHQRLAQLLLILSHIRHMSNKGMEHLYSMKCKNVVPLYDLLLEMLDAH
Method: (§1) In order to evaluate the ability of the fusion proteins C7LBD A, B, and the related LBD mutants to regulate transgene expression, a standard co-transfection reporter assay was performed. A reporter construct, henceforth known as 6×2C7pGL3Luc, containing six copies of a directly repeated C7 binding site (6×2C7) inserted upstream of an SV40 promoter fragment and reporter gene encoding firefly luciferase (pGL3Pro; Promega) was transfected along with the designated fusion protein and assayed as described below. Note the consensus C7 binding site is 5′-GCG TGG GCG-3′.
(§2) Cultured cells (HeLa, Cos, Hep3B or other) were seeded at 5×10^4 cells/well in a 24 well plate prior to the day of transfection in DMEM Phenol-free media, supplemented with L-glutamine and 5% (v/v) charcoal-dextran stripped Fetal Bovine serum (sFBS). Cells were transfected using the Qiagen Superfect Transfection method. For each well 1 μg of total DNA, containing 0.5 μg luciferase reporter plasmid (6×2C7pGL3Luc), 0.1 μg of chimeric activator DNA (e.g., C7LBDA, C7LBDB, or mutants thereof ), and 0.4 μg of an inert carrier plasmid DNA (p3Kpn), was mixed with 60 μL of DMEM phenol-free/serum free media, and 5 μL of Superfect reagent. In general, about 10 ng to about 0.5 μg of chimeric activator DNA was used for each well. […]

wild-type ER = target: T2, wild-type ER (Homo sapiens, UniProt P03372); assay: Inhibition of E2 activity on wild-type ER, COS-7 cells with pHEGO and ERE luciferase reporter; type: cell-based; details: IC50 ± STDEV, pHEGO and pERETkLuc, E2 (3 nM) + 0.1 to 1000 nM compound
T2 construct: expressed in transfected cells; host or cells: COS-7
T2 sequence (P03372 1-595): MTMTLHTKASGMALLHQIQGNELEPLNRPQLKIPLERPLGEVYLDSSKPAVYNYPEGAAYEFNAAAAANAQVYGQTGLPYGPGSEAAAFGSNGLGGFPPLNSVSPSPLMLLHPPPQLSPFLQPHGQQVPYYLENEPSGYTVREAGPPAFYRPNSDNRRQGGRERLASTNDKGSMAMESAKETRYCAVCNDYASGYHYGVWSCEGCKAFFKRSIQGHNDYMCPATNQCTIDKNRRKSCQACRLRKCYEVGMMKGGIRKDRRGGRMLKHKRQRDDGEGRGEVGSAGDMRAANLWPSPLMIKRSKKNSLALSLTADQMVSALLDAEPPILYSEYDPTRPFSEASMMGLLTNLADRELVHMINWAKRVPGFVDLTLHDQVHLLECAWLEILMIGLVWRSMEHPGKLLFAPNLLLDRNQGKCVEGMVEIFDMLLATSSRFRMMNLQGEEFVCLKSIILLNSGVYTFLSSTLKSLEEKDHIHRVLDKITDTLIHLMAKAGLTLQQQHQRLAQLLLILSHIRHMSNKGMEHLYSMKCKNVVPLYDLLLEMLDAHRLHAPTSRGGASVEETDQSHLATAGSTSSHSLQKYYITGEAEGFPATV
Method: For transfection, 0.5 microgram of pERE2tkluc reporter plasmid, 20 ng of pHEGO, and 0.5 microgram of pCIneo inert carrier DNA were combined with 60 microliter serum-free DMEM and 5 microliter Qiagen Superfect transfection reagent, vortexed for 10s, and set at room temperature for 10 min. Each sample was diluted with 350 microliters of steroid-free media, mixed, and added to each well. Following 2 hr 30 min incubation at 37° C., cells were washed once with Dulbecco's phosphate buffered saline (DPBS), and refed with steroid-free media. […] Approximately 24 hr after treatment, cells were washed once with DPBS, then 200 microliter of reporter lysis buffer was added per well and frozen at −80° C. Cells were thawed at room temperature on an orbital shaker for 1 hr 30 min. A 10 microliter aliquot of lysate was transferred to 96 well opaque plates, and relative luciferase units (RLU) determined on a luminometer using the appropriate firefly luciferase substrate.
Note that the nonspecific activity is a noncompetable element in the assay system.
In order to dissolve them completely, all the solutions were warmed in 55° C. or boiled water bath for 10 to 20 min before use. The DMSO in cell culture medium was maintained to 0.01% for all the drug concentration tested as well as the vehicle control.

ER-LBD 388V/424Y/428A = target: T3, ER-LBD 388V/424Y/428A (Homo sapiens, UniProt P03372, I424Y/L428A/M388V); assay: ER-LBD 388V/424Y/428A transactivation, cotransfection luciferase reporter assay in HeLa cells; type: cell-based
T3 construct: expressed in transfected cells; host or cells: HeLa
T3 sequence (P03372 311-547 M388V/I424Y/L428A): T1 sequence (P03372 311-547 M421V/L428A) with M78V, V111M, I114Y
Method: as §1, §2

Av3-388V/424Y/428A = target: T4, Av3-388V/424Y/428A (Homo sapiens, UniProt P03372, I424Y/L428A/M388V); assay: Transactivation on adenoviral (Av3)-delivered ER variant, luciferase in HeLa cells; type: cell-based; details: 100 nM test compound, 24 hrs (FIG. 5)
T4 construct: fragment B=ER amino acids 258-554; expressed in transfected cells; host or cells: HeLa cells transduced with Av3 or gutless adenoviral vector
T4 sequence (P03372 258-554 M388V/I424Y/L428A): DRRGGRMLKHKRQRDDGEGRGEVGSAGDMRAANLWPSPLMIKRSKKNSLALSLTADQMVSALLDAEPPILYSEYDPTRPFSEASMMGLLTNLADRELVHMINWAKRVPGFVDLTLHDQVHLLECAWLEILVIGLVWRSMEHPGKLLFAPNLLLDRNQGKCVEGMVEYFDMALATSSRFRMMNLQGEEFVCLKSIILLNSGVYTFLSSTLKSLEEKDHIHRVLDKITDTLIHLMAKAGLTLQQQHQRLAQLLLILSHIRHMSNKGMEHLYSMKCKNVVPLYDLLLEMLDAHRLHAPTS
Description: Xu et al., Molecular Therapy, 3:262-273, 2000.

[1] = target: T5, 388V-424Y-428A transcription factor (Homo sapiens, UniProt P03372, I424Y/L428A/M388V); assay: In vitro inducible luciferase expression with gutless adenoviral transcription factor vector in Hela cells; type: cell-based
T5 construct: fragment B=ER amino acids 258-554; expressed in transfected cells; host or cells: HeLa cells transduced with Av3 or gutless adenoviral vector
T5 sequence (P03372 258-554 M388V/I424Y/L428A): T4 sequence (P03372 258-554 M388V/I424Y/L428A)

[2] = target: T6, 388V-424Y-428A transcription factor system (Homo sapiens, UniProt P03372, I424Y/L428A/M388V); assay: In vivo regulation of endostatin transgene, gutless vectors, serum endostatin ELISA; set-up: species or system C57BL/6 mice; details: 50 ug/animal IP; for Endostatin Levels: vectors 5×10^10 particles/mouse each, n = 3
T6 construct: fragment B=ER amino acids 258-554; expressed in transfected cells; host or cells: HeLa cells transduced with Av3 or gutless adenoviral vector
T6 sequence (P03372 258-554 M388V/I424Y/L428A): T4 sequence (P03372 258-554 M388V/I424Y/L428A)
Method: To address this issue of sustained induction, a second in vivo study was performed.

Av3-421/428 = target: T7, Av3-421/428 (Homo sapiens, UniProt P03372, L428A/M421V); assay: Transactivation on adenoviral (Av3)-delivered ER variant, luciferase in HeLa cells
T7 sequence (P03372 258-554 M421V/L428A): T4 sequence (P03372 258-554 M388V/I424Y/L428A) with V131M, M164V, Y167I
Description: For example, the ER LBD mutants of the present invention were constructed into a replication defective adenoviral vector (Av3) backbone DNA sequence so that this regulatory system could be delivered into cells for clinical application and testing. An Av3 vector containing a series of C7 binding sites linked to an SV40 minimal promoter and luciferase transgene (C7-SV40-luc) was also constructed and delivered simultaneously with each of the Av3 ER LBD mutant vectors. The cells were then exposed to the corresponding ligand to test the capability of the adenoviral-delivered ER mutants to respond to their corresponding ligands and then mediate the transcription of the luciferase transgene in the context of an adenoviral vector. […] Xu et al., Molecular Therapy, 3:262-273, 2000.

Structure (SMILES) | EC50 (ER-LBD 421V/428A) | IC50 (wild-type ER) | melting point | EC50 (ER-LBD 388V/424Y/428A; HeLa cells cotransfected with pC7ERLBD 388V/424Y/428A and p6x2C7Luc, 0.1 to 1000 nM, mean of two or more experiments, read-out: EC50 ± STDEV) | sensitivity of mutant ER LBD 388V/424Y/428A to LBB 938 relative to estrogen (ER-LBD 388V/424Y/428A; ratio of EC50 values) | luciferase activity over the basal level (Av3-388V/424Y/428A) | Fold Induction ([1]; 100 nM ligand vs without ligand) | Luciferase Expression Levels (Relative Light Units) ([1]; (+) induced with 100 nM ligand, mean +/− standard error (n = 4)) | endostatin expression, result in words [2] | Endostatin Levels ([2]; Day 1) | Endostatin Levels ([2]; Day 3) | Endostatin Levels ([2]; Day 7) | response relative to basal activity / fold induction (Av3-421/428; 100 nM test compound, 24 hrs (FIG. 5)) | fold induction at 0.1 µM (Av3-421/428; read-out: response relative to basal activity / fold induction)
COC(=O)NC/C(=C(/c1ccc(O)cc1)c1ccc(OCCN(C)C)cc1)c1ccccc1 [LBB551, Carbamic acid, [(2Z)-3-[4-[2-(dimethylamino)ethoxy]phenyl]-3-(4-hydroxyphenyl)-2-phenyl-2-propenyl]-, methyl ester] | 4.89 nM | 955 nM | 122 to 123 °C | – | – | – | – | – | – | – | – | – | – | –
CN(C)CCOc1ccc(/C(=C(/CC2CC3CCC2C3)c2ccccc2)c2ccc(O)cc2)cc1 (stereo not drawn) [LBB938, 4-((1Z))-3-bicyclo[hept-2-yl-1-{4-[2-(dimethylamino)ethoxy]phenyl}-2-phenylprop-1-enyl)phenol] | – | 388 nM | – | 28.4 nM and ~28 nM | approximately eight | 19 fold | 90 fold | 3284939 +/− 116076 Relative Light Units | induce endostatin expression | 6074 ± 3536 ng/mL | 2332 ± 333 ng/mL | 600 ± 72 ng/mL | – | –
COC(=O)NC/C(=C(\c1ccc(O)cc1)c1ccc(OCCN(C)C)cc1)c1ccccc1 [LBC081, Carbamic acid, [(2E)-3-[4-[2-(dimethylamino)ethoxy]phenyl]-3-(4-hydroxyphenyl)-2-phenyl-2-propenyl]-, methyl ester] | 11.7 nM | 845 nM | 161 to 162 °C | – | – | – | – | – | – | – | – | – | three | 3
